Earlier results as cited in patent publication US12296049B2, “Immediate release dosage form” (Kenvue Brands LLC, priority 2019, dated 2025).

Settings: at lower acidic pH it precipitates

pH at which the drug stays in solution: above 5.4
SMILES: COc1ccc2cc([C@H](C)C(=O)O)ccc2c1 [naproxen sodium]
